Legend:
Assay type in all cases: in vivo, mice
[1] = test system: NCI-H1650 xenograft model; assay: Combination of docetaxel and MLN4924 in NCI-H1650 xenograft model
Description: NCI-H1650 (2×10^6) tumor cells in RPMI-1640 media are mixed with an equal volume of Matrigel (BD Biosciences) and aseptically injected into the subcutaneous space in the right dorsal flank of Balb/c Nude mice (age 4-6 weeks, Shanghai SINO-British SIPPR/BK Lab Animal Ltd.) using a 25-gauge needle.
(§1) Docetaxel (Henry Schein, Inc., Pittsburgh Pa., Qilu Pharmaceutical Co., Ltd., Jinan, Shandong, China, and Sanofi-Aventis) is formulated in 0.9% saline and administered by intravenous injection (IV) once weekly (QW) at 5 mg/kg or 10 mg/kg.
(§2) Tumors are measured twice weekly using a vernier caliper. Tumor volumes are calculated using standard procedures (0.5×(length×width^2)). […] Tumor size and body weight are measured approximately twice a week for the duration of the study. Mice are euthanized when their tumor volume reached 10% of their body weight, or when the average tumor volume of a treatment or control group reached approximately 2000 mm^3. Tumor growth continued to be monitored after the dosing period in some studies. Average tumor volume is reported as a function of time for selected groups of selected studies in Figures A, B, and C.
(§3) Measurements from day 0 to 18, 21 or 22 are analyzed as specified in Tables 4-9. All tumor volumes have a value of 1 added to them before log10 transformation. For each animal, the log tumor volume at day 0 is subtracted from the log tumor volume on the subsequent days. This difference vs. time is used to calculate an area under the curve (AUC) for each animal using the trapezoid rule. […] The synergy score for the combination of agents A and B is defined as 100*(mean(AUCAB)−mean(AUCA)−mean(AUCB)+mean(AUCctl))/mean(AUCctl): where AUCAB, AUCA, AUCB, and AUCctl are the AUC values for animals in the combination group, the A group, the B group, and the control group, respectively. The standard error of the synergy score is computed based on the variation in the AUC values among the animals. […] If the P-value is above 0.05, then the combination is considered to be additive. If the P-value is below 0.05, and the synergy score is less than zero, then the combination is considered to be synergistic. […] Otherwise, the combination is classified as antagonistic.

[2] = test system: LXFE409 xenograft model; assay: Combination of docetaxel or carboplatin and MLN4924 in LXFE409 xenograft model; conditions: for average tumor volume day 21: LXFE409 xenograft
Experimental: LXFE409 squamous non small cell lung cancer tumor fragments are implanted into the subcutaneous space in the flank of female NMRI nu/nu mice (5-7 weeks, Janvier Labs, Saint Berthevin, France).
as §1
Carboplatin (CARBOplatin Injection, Hospira, Inc., Qilu Pharmaceutical Co., Ltd. Jinan, Shandong, China, and Teva Gry-Pharma GmbH, Ulm, Germany) is formulated in 0.9% saline and administered by IP injection once weekly (QW) at 50 mg/kg. The once weekly schedule is also described as every 7 days (Q7D).
as §2, §3

[3] = test system: NCI-H82 xenograft model; assay: Combination of cisplatin and MLN4924 in NCI-H82 xenograft model
Experimental: NCI-H69 or NCI-H82 small cell lung tumor fragments (30- to 40-mg) are implanted into the subcutaneous space in the area of the right flank of NCr nu/nu mice (7-10 weeks, Charles River Laboratories, Inc, Frederick Md. or Wilmington, Mass.) using a 12-gauge trocar.
as §2, §3

[4] = 120 mg/kg MLN4924 Q2Dx3/week SC

NS(=O)(=O)OC[C@@H]1C[C@@H](n2ccc3c(N[C@H]4CCc5ccccc54)ncnc32)C[C@@H]1O [MLN4924, ((1S,2S,4R)-4-(4-((1S)-2,3-dihydro-1H-inden-1-ylamino)-7H-pyrrolo[2,3-d]-pyrimidin-7-yl)-2-hydroxycyclopentyl)methyl sulfamate]
average tumor volume day 21 ([1]; 90 mg/kg MLN4924 Q2Dx3/week SC): 776.8 mm^3
average tumor volume day 21 [1, 4]: 774.2 mm^3
tumor course after the treatment period, to end of study on day 95 (in words) ([2]; LXFE409 sqNSCLC model, FIG. 4, MLN4924 120 mg/kg SC Q2Dx3/week for 3 weeks, docetaxel 10 mg/kg IV QW for 3 weeks, single agents or combination): regrew after the treatment period ended
average tumor volume day 21 ([2]; 90 mg/kg MLN4924 Q2Dx3/week SC): 707.5 mm^3
average tumor volume day 21 [2, 4]: 167.1 mm^3
average tumor volume day 22 ([3]; 60 mg/kg MLN4924 BID Q2Dx3/week SC): 861.9 mm^3
average tumor volume day 22 ([3]; 60 mg/kg MLN4924 BID Q3Dx2/week SC): 783.3 mm^3

Source: patent publication US10786505B2, “Administration of NEDD8-activating enzyme inhibitor and chemotherapeutic agents” (Millennium Pharmaceuticals, Inc., priority 2013, dated 2020)
